From PubChem BioAssay AID2060332 (Molecular Pharmacology Branch, DTP, NCI, 2025) come the findings set out here.

For the assay, the system named is LG0567-F671-PDC multi-cell spheroid viability. Description: Anticancer human tumor LG0567-F671-PDC patient-derived lung adenocarcinoma cell line growth inhibition [IpAb]. To be noted: for viability, T/C: stronger effect = lower value. The essentials:
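Combinations with ipatasertib or abemaciclib were tested on tumour spheroids holding HUVEC (25%) and MSC (15%) alongside 60% malignant cells. Top concentration was at or near clinical Cmax (10 microM if undefined), descending in half-log steps.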

[1] abbreviates: curve of first compound, second compound 0.1 µM.
Where [2] appears, read: curve of first compound, second compound 0.316 µM.
Setting [3] is: curve of first compound, second compound 1 µM.
The mark [4] stands for this setting: curve of first compound, second compound 3.16 µM.
Setting [5] is: curve of first compound, second compound 10 µM.
The mark [6] stands for this setting: second compound 0.1 µM, first compound 0.0316 µM.
The mark [7] stands for this setting: second compound 0.1 µM, first compound 0.1 µM.
Where [8] appears, read: second compound 0.316 µM, first compound 0.0316 µM.
Setting [9] is: second compound 0.316 µM, first compound 0.1 µM.
The mark [10] stands for this setting: second compound 1 µM, first compound 0.0316 µM.
Setting [11] is: second compound 1 µM, first compound 0.1 µM.
Setting [12] is: second compound 3.16 µM, first compound 0.0316 µM.
Setting [13] is: second compound 3.16 µM, first compound 0.1 µM.
Where [14] appears, read: second compound 10 µM, first compound 0.0316 µM.
The mark [15] stands for this setting: second compound 10 µM, first compound 0.1 µM.

Several values for one entry are separate records, joined by “and”; a condition that tells them apart may be missing. Equal values may be shown once.
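Note: viability read after 7 days of drug exposure.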
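Throughout, for viability, T/C: 100% = DMSO vehicle control luminescence.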

One may read the IC50 as the concentration that gives 50% inhibition. As a reminder, the viability, T/C is the result in the treated group divided by that in the control group, in per cent. Turning to `Cn1cnc2c(F)c(Nc3ccc(Br)cc3Cl)c(C(=O)NOCCO)cc21` + CC(C)NCC(C(=O)N1CCN(c2ncnc3c2C(C)CC3O)CC1)c1ccc(Cl)cc1, the IC50 by setting is: under setting [1], 15.7 nM; under setting [2], under 9.49 nM; under setting [3], under 9.49 nM; under setting [4], under 9.49 nM; under setting [5], under 9.49 nM. Moreover, the viability, T/C reads like this: (second compound 0.1 µM, first compound 0.00949 µM) 59.6%; (second compound 0.1 µM, first compound 0.03 µM) 36.4%; (second compound 0.1 µM, first compound 0.0949 µM) 29.3%; (second compound 0.1 µM, first compound 0.3 µM) 18.2%; (second compound 0.1 µM, first compound 0.949 µM) 18.6%; (second compound 0.1 µM, first compound 3 µM) 11.1%. The viability, T/C runs as follows: (second compound 0.316 µM, first compound 0.00949 µM) 43.4%; (second compound 0.316 µM, first compound 0.03 µM) 32.4%; (second compound 0.316 µM, first compound 0.0949 µM) 23.2%; (second compound 0.316 µM, first compound 0.3 µM) 18%; (second compound 0.316 µM, first compound 0.949 µM) 14.3%; (second compound 0.316 µM, first compound 3 µM) 5.52%. The viability, T/C by setting is: (second compound 1 µM, first compound 0.00949 µM) 34.6%; (second compound 1 µM, first compound 0.03 µM) 32.3%; (second compound 1 µM, first compound 0.0949 µM) 23.9%; (second compound 1 µM, first compound 0.3 µM) 21.3%; (second compound 1 µM, first compound 0.949 µM) 10.7%; (second compound 1 µM, first compound 3 µM) 8.24%. For the same molecule, the viability, T/C (second compound 3.16 µM, first compound 0.00949 µM) was 44.9%; the viability, T/C (second compound 3.16 µM, first compound 0.03 µM) was 43.4%; the viability, T/C (second compound 3.16 µM, first compound 0.0949 µM) is 36.4%; the viability, T/C (second compound 3.16 µM, first compound 0.3 µM) is 16.4%; the viability, T/C (second compound 3.16 µM, first compound 0.949 µM) is 14.8%; the viability, T/C (second compound 3.16 µM, first compound 3 µM) is 7.66%. Also, the viability, T/C runs as follows: (second compound 10 µM, first compound 0.00949 µM) 43.4%; (second compound 10 µM, first compound 0.03 µM) 28.7%; (second compound 10 µM, first compound 0.0949 µM) 26.7%; (second compound 10 µM, first compound 0.3 µM) 21.5%; (second compound 10 µM, first compound 0.949 µM) 11.9%; (second compound 10 µM, first compound 3 µM) 8.12%.

On to `Cn1ncnc1[C@H]1c2n[nH]c(=O)c3cc(F)cc(c23)N[C@@H]1c1ccc(F)cc1` + CC(C)NCC(C(=O)N1CCN(c2ncnc3c2C(C)CC3O)CC1)c1ccc(Cl)cc1, for which the IC50 under setting [1] stood at 21.9 nM; the IC50 under setting [2] was determined as 9.77 nM; the IC50 under setting [3] was 18.1 nM; the IC50 under setting [4] was 38.1 nM; the IC50 under setting [5] stood at 20.5 nM. For the same molecule, the viability, T/C runs as follows: (second compound 0.1 µM, first compound 0.000316 µM) 104%; (second compound 0.1 µM, first compound 0.001 µM) 97.9%; (second compound 0.1 µM, first compound 0.00316 µM) 68.9%; (second compound 0.1 µM, first compound 0.01 µM) 64.9%; under setting [6], 42%; under setting [7], 41.1%. For the same molecule, the viability, T/C was 69.1% (second compound 0.316 µM, first compound 0.000316 µM); 70.5% (second compound 0.316 µM, first compound 0.001 µM); 64.1% (second compound 0.316 µM, first compound 0.00316 µM); 44.9% (second compound 0.316 µM, first compound 0.01 µM); 56.4% under setting [8]; 47.8% under setting [9]. Besides, the viability, T/C (second compound 1 µM, first compound 0.000316 µM) was 73.6%; the viability, T/C (second compound 1 µM, first compound 0.001 µM) is 74.5%; the viability, T/C (second compound 1 µM, first compound 0.00316 µM) is 75%; the viability, T/C (second compound 1 µM, first compound 0.01 µM) is 68.5%; the viability, T/C under setting [10] was 27.8%; the viability, T/C under setting [11] is 37.7%. Moreover, the viability, T/C is 79.3% (second compound 3.16 µM, first compound 0.000316 µM); 71.3% (second compound 3.16 µM, first compound 0.001 µM); 77.5% (second compound 3.16 µM, first compound 0.00316 µM); 59.2% (second compound 3.16 µM, first compound 0.01 µM); 53.6% under setting [12]; 37.6% under setting [13]. In addition, the viability, T/C by setting is: (second compound 10 µM, first compound 0.000316 µM) 63.9%; (second compound 10 µM, first compound 0.001 µM) 70.5%; (second compound 10 µM, first compound 0.00316 µM) 70.6%; (second compound 10 µM, first compound 0.01 µM) 50.8%; under setting [14], 49.6%; under setting [15], 35.3%.

As for `Cc1nc(NC(=O)N2CCCC2C(N)=O)sc1-c1ccnc(C(C)(C)C(F)(F)F)c1` (centres undefined), the viability, T/C by setting is: (compound 0.0316 µM) 85.2%; (compound 0.1 µM) 79.3% and 90.2%; (compound 0.316 µM) 59.3% and 74%; (compound 1 µM) 44.5% and 52.8%; (compound 3.16 µM) 66.8% and 49.1%; (compound 10 µM) 50.2% and 46.2%. Under “curve of compound”, the IC50 was > 10000 nM and 1800 nM.

Take `CC(=O)c1c(C)c2cnc(Nc3ccc(N4CCNCC4)cn3)nc2n(C2CCCC2)c1=O`: the viability, T/C was 95.7% and 102% (compound 0.000949 µM); 78.4% and 87.8% (compound 0.003 µM); 107% and 91.7% (compound 0.00949 µM); 68.7% and 76.1% (compound 0.03 µM); 91.7% and 72.5% (compound 0.0949 µM); 86.8% and 82.4% (compound 0.3 µM). The IC50 (curve of compound) is over 300 nM.

Turning to `Cn1ncc(Cl)c1-c1cc(C(=O)NC(CN)Cc2cccc(F)c2)sc1Cl` (centres undefined) + CC(C)NCC(C(=O)N1CCN(c2ncnc3c2C(C)CC3O)CC1)c1ccc(Cl)cc1, the IC50 reads like this: under setting [1], 3220 nM; under setting [2], 3410 nM; under setting [3], 1910 nM; under setting [4], 3020 nM; under setting [5], 2390 nM. In addition, the viability, T/C under setting [6] was 68.7%; the viability, T/C under setting [7] is 68.3%; the viability, T/C (second compound 0.1 µM, first compound 0.316 µM) was 74.8%; the viability, T/C (second compound 0.1 µM, first compound 1 µM) was 81.1%; the viability, T/C (second compound 0.1 µM, first compound 3.16 µM) was 50.8%; the viability, T/C (second compound 0.1 µM, first compound 10 µM) is 0.2%. In addition, the viability, T/C is 79.6% under setting [8]; 81.4% under setting [9]; 81.8% (second compound 0.316 µM, first compound 0.316 µM); 61.7% (second compound 0.316 µM, first compound 1 µM); 58.2% (second compound 0.316 µM, first compound 3.16 µM); 0.18% (second compound 0.316 µM, first compound 10 µM). Also, the viability, T/C is, setting by setting: under setting [10], 71.1%; under setting [11], 89.5%; (second compound 1 µM, first compound 0.316 µM) 71.3%; (second compound 1 µM, first compound 1 µM) 67.1%; (second compound 1 µM, first compound 3.16 µM) 37.1%; (second compound 1 µM, first compound 10 µM) 0.16%. In addition, the viability, T/C under setting [12] is 70%; the viability, T/C under setting [13] is 82.5%; the viability, T/C (second compound 3.16 µM, first compound 0.316 µM) is 76.3%; the viability, T/C (second compound 3.16 µM, first compound 1 µM) is 51.5%; the viability, T/C (second compound 3.16 µM, first compound 3.16 µM) was 57%; the viability, T/C (second compound 3.16 µM, first compound 10 µM) is 0.39%. The viability, T/C under setting [14] was 77.5%; the viability, T/C under setting [15] is 76.9%; the viability, T/C (second compound 10 µM, first compound 0.316 µM) was 83.6%; the viability, T/C (second compound 10 µM, first compound 1 µM) was 60.2%; the viability, T/C (second compound 10 µM, first compound 3.16 µM) is 46.6%; the viability, T/C (second compound 10 µM, first compound 10 µM) was 0.19%.
